One assay relates to Thrips. Format: in vivo.
The test system of assay [1] is Bandedwinged Whitefly. The following applies: in vivo.
The test system of assay [2] is Bandedwinged Whitefly. The following applies: in vivo. The source holds these as a separate data set.
For assay [3], the system named is cotton aphid. The format is in vivo. The following applies: for Cotton aphid count 2 days after treatment: 5 leaves per plot, untreated 1277; for Cotton aphid count 2 days after treatment / Cotton aphid % control 2 days after treatment: lb./A: methyl parathion 0.5, oxydemeton-methyl 0.25, Dash 2.0, 53 gallons/A.
The subject of assay [4] is cabbage looper (Trichoplasia ni). As to the kind of experiment: Control of cabbage pests in cabbage: cabbage looper. The format is in vivo.
The test system of the next assay is Tobacco Budworm. Briefly: Tobacco budworm boll damage in cotton. Format: in vivo, tobacco budworm (Heliothis virescens). The following applies: 50 bolls, lb./A: chlorpyrifos + dimethoate 0.62, chlorpyrifos 0.50, Dash 2.0, control 45.
A further assay has as its system Fall Armyworm. As to the kind of experiment: Control of fall armyworm in sweet corn. Format: in vivo, fall armyworm (S. fruqiperda).
Assay [5] concerns imported cabbageworm (Pieris rapae). Briefly: Control of cabbage pests in cabbage: imported cabbageworm. The format is in vivo.
Assay [6] deals with Beet Armyworm. As to the kind of experiment: Control of beet armyworm in sweet corn. Format: in vivo, beet armyworm (Spodoptera exigua).
For assay [7], the system named is diamondback moth (Plutella xylostelia). As to the kind of experiment: Control of cabbage pests in cabbage: diamondback moth. Format: in vivo.
Assay [8] deals with Beet Armyworm. As to the kind of experiment: Control of beet armyworm in cotton. The format is in vivo, beet armyworm (Spodoptera exigua).
Assay [9] deals with Colorado Potato Beetle (Leptinotarsa decemlineata). Briefly: Control of Colorado potato beetle in potatoes. The format is in vivo. Conditions: adjuvant 0.88 lb/A where added; for Total Number of larvae from a six meter plot, 3 DAT L2 / Total Number of larvae from a six meter plot, 7 DAT L2: first and second instar; for Total Number of larvae from a six meter plot, 3 DAT L4 / Total Number of larvae from a six meter plot, 7 DAT L4: third and fourth instar. An excerpt: The efficacy of Guthion™ (azinphosmethyl) alone and in combination with Dash HC® against the Colorado Potato Beetle (Leptinotarsa decemlineata) on potatoes. The test plot area was monitored for the presence of significant naturally occurring populations of the target pest, Colorado potato beetle (CPB). At the critical pest population threshold, treatments were applied to 6 meter, single row plots of the crop using a CO2 pressurized backpack sprayer.
Treatments were sprayed on potatoes in the early bloom stage to a mature population of the Colorado potato beetle. Larvae were evaluated in two classes: class one=first and second instar larvae, class two=third and fourth instar. Population counts were taken at 3 and 7 days after treatment. Trial results can be seen in Table 8.
Azinphosmethyl was applied at a rate of 0.375 lb ai/A. The recommended rate for CPB control. The insecticide was combined with water at a rate of 64.1 gal/acre. […].
Azinphosmethyl was applied at a rate of 0.30 lb ai/A. This is a 20% reduction below the recommended rate for CPB control. The insecticide was combined with water at a rate of 64.1 gal/Acre.
Azinphosmethyl was applied at a rate of 0.19 lb ai/A. This is ½ of the recommended label rate for CPB control. The insecticide was combined with water at a rate of 64.1 gal/acre.
Azinphosmethyl was applied at a rate of 0.375 lb ai/A. The recommended rate for CPB control. The insecticide was combined with water at a rate of 64.1 gal/a.
Azinphosmethyl was applied at a rate of 0.30 lb ai/A. This is a 20% reduction below the recommended rate for CPB control. The insecticide was combined with water at a rate of 64.1 gal/Acre. […] With the 64.1 gal of water used to deliver the mix, the resultant adjuvant concentration was 0.383%.
Azinphosmethyl was applied at a rate of 0.19 lb ai/A. This is ½ of the recommended label rate for CPB control. The insecticide was combined with water at a rate of 64.1 gal/acre. […] With the 64.1 gal of water used to deliver the mix, the resultant adjuvant concentration was 0.383%.

For assay [10], the system named is cotton aphid. Format: in vivo.
[11] abbreviates: cotton, lb./A: acephate 0.20, dicrotophos 0.20, Dash 2.0.
Setting [12] is: chlorpyrifos 0.62 lb.ai/A, DASH 0.88 lb/a where added.
[13] abbreviates: chlorpyrifos 1.0 lb.ai/A, DASH 0.88 lb/a where added.
The mark [14] stands for this setting: lb./A: chlorpyrifos + dimethoate 0.45, chlorpyrifos 0.94, Dash 2.0.
Setting [15] is: chlorpyrifos 1.24 lb.ai/A alone (treatment B), control 2.3.

Where two headings read alike, the source gives them in different places.

In the case of `COP(=O)(NC(C)=O)SC` (stereo not shown) [Acephate, O,S-dimethyl acetylphosphoramidothioate], in the assay on Thrips (setting [11]), the “Thrips % control, 1 DAT” value was “(80) %”; the “Thrips % control, 5 DAT” value is recorded as “(35) %”; the “Thrips % control, 9 DAT” value was “(44) %”. For the same compound, the “# Thrips/10 Plants, 0 DAT” value with Thrips (cotton, lb./A: acephate 0.20, dicrotophos 0.20, Dash 2.0, 15 gallons/A, control 252 ± 88) is given as 174 ± 50. Also, the “# Thrips/10 Plants, 9 DAT” value in the assay on Thrips (cotton, lb./A: acephate 0.20, dicrotophos 0.20, Dash 2.0, control 36 ± 32) is listed as 20 ± 18. Further, the “# Thrips/10 Plants, 5 DAT” value in the assay on Thrips (cotton, lb./A: acephate 0.20, dicrotophos 0.20, Dash 2.0, control 65 ± 43) was 42 ± 17. Further, the “# Thrips/10 Plants, 1 DAT” value with Thrips (cotton, lb./A: acephate 0.20, dicrotophos 0.20, Dash 2.0, control 115 ± 50) turned out to be 21 ± 9. The “Whitefly adults % control, 3 days after treatment” value in the assay with Bandedwinged Whitefly [1] was “(98) %”. For the same compound, in the assay on Bandedwinged Whitefly [2], the “# Whitefly adults counted, 7 days after treatment” value is 54; the “Whitefly adults % control, 3 days after treatment” value is “(98) %”; the “Whitefly adults % control, 7 days after treatment” value is listed as “(90) %”.
Consider `CC[S+]([O-])CCSP(=O)(OC)OC` (stereo not shown) [Oxydemeton-methyl], for which, in the assay on cotton aphid [3], the “Cotton aphid count 2 days after treatment” value (“Cotton aphid count 2 days” for short) is recorded as 74 and the “Cotton aphid % control 2 days after treatment” value (“Cotton aphid % control 2 days” for short) is recorded as 94%. In addition, the “aphid control on tank-mixing with the adjuvant” value with cotton aphid [3] (in vivo) was “Improvement in aphid control”.
Consider `CCOP(=S)(OCC)Oc1nc(Cl)c(Cl)cc1Cl` [Chlorpyrifos], for which the “# of larvae TRIPNI 4DAT” value in assay [4] (3 plants per plot, chlorpyrifos 1.24 lb.ai/A alone (treatment B), control 1.7) was 0.7; in [4] (setting [12]) it was 2.7; in [4] (setting [13]), 1.3. Further, the “# of larvae TRIPNI 7DAT” value in assay [4] (setting [12]) amounted to 0.7; in assay [4] (setting [13]), 2.0; in assay [4] (chlorpyrifos 1.24 lb.ai/A alone (treatment B), control 0.3), 0.7. In addition, in the assay with Tobacco Budworm, the “% Bolls Damaged by Tobacco Budworm 3 DAT” value was 42%. In the assay on Fall Armyworm (setting [14]), the “Fall Armyworm % control 4 DAT” value is 95%. Also, in the assay on Fall Armyworm (lb./A: chlorpyrifos + dimethoate 0.45, chlorpyrifos 0.94, Dash 2.0, 33 gallons/A, control 5), the “# Fall Armyworm 4 DAT” value is 0.25. Besides, the “# of larvae PIERRA 4DAT” value in assay [5] (setting [12]) is given as 0; in assay [5] (setting [13]), 0; in [5] (chlorpyrifos 1.24 lb.ai/A alone (treatment B), control 4.7), 0. The “# of larvae PIERRA 7DAT” value in [5] (setting [12]) worked out at 0.3; in [5] (setting [13]), 1.0; in [5] (setting [15]), 1.3. The “Beet Armyworm % control 4 DAT” value with Beet Armyworm [6] (setting [14]) is 66%. The “# Beet Armyworm 4 DAT” value with Beet Armyworm [6] (lb./A: chlorpyrifos + dimethoate 0.45, chlorpyrifos 0.94, Dash 2.0, 33 gallons/A, control 3) is 1. Moreover, the figures for the “# of larvae PLUTMA 4DAT” value in [7] (setting [12]), in assay [7] (setting [13]) and in assay [7] (setting [15]) were 0.7, 0.3 and 1.0, respectively. Moreover, the “# of larvae PLUTMA 7DAT” value in assay [7] (setting [12]) is 0.3; in [7] (setting [13]), 0; in [7] (chlorpyrifos 1.24 lb.ai/A alone (treatment B), control 1.7), 1.0. Also, in the assay on Beet Armyworm [8] (chlorpyrifos at half-to-two-thirds the labeled rate), the “beet armyworm control, tankmixed with Dash versus applied alone at the same rates” value was “effective and better beet armyworm control when takmixed with Dash than when applied alone”. Also, the “# Beet Armyworms 3 days after treatment” value in the assay with Beet Armyworm [8] (cotton, 13-ft row section, lb./A: chlorpyrifos + dimethoate 0.62, chlorpyrifos 0.50, Dash 2.0, 20 gallons/A, control 112) is 73. In addition, the “Beet Armyworms % control 3 days after treatment” value in the assay with Beet Armyworm [8] (cotton, lb./A: chlorpyrifos + dimethoate 0.62, chlorpyrifos 0.50, Dash 2.0) stood at 38%.
For `COP(=S)(OC)SCn1nnc2ccccc2c1=O` [azinphosmethyl], the “Total Number of larvae from a six meter plot, 3 DAT L2” value in assay [9] (azinphosmethyl 0.19 lb ai/A) was 4.0; in [9] (azinphosmethyl 0.30 lb ai/A), 5.0; in assay [9] (azinphosmethyl 0.375 lb ai/A, control 29.7), 0.7. The “Total Number of larvae from a six meter plot, 7 DAT L2” value in assay [9] (azinphosmethyl 0.19 lb ai/A) came out at 1.3; in assay [9] (azinphosmethyl 0.30 lb ai/A), 1.0; in assay [9] (azinphosmethyl 0.375 lb ai/A, control 3.0) it was 6.0. Also, the “Total Number of larvae from a six meter plot, 3 DAT L4” value in [9] (azinphosmethyl 0.19 lb ai/A) amounted to 11.7; in [9] (azinphosmethyl 0.30 lb ai/A) it was 7.7; in assay [9] (azinphosmethyl 0.375 lb ai/A, control 79.3), 12.3. For the same compound, the “Total Number of larvae from a six meter plot, 7 DAT L4” value turned out to be 6.0 in [9] (azinphosmethyl 0.19 lb ai/A); 3.0 in assay [9] (azinphosmethyl 0.30 lb ai/A); 5.0 in assay [9] (azinphosmethyl 0.375 lb ai/A, control 24.3).
`CNC(=O)CSP(=S)(OC)OC` [Dimethoate, O,O-dimethyl S-methylcarbamoylmethyl phosphorodithioate]: in the assay with cotton aphid [10] (in vivo), the “aphid control on tank-mixing with the adjuvant” value was “Improvement in aphid control”. Moreover, the “Cotton aphid count 2 days” value with cotton aphid [10] (okra, 20 leaves per plot, lb./A: methyl parathion 0.5, dimethoate 0.25, chlorpyrifos 0.17 + dimethoate 0.14, Dash 2.0, 30 gallons/A, untreated 132) is given as 19. Further, the “Cotton aphid % control 2 days” value in the assay on cotton aphid [10] (okra, lb./A: methyl parathion 0.5, dimethoate 0.25, chlorpyrifos 0.17 + dimethoate 0.14, Dash 2.0, 30 gallons/A) was found to be 86%.
For the compound `COP(=S)(OC)Oc1ccc([N+](=O)[O-])cc1` [Methyl parathion, O,O-dimethyl O-(4-nitrophenyl)phosphorothioate], in the assay with cotton aphid [10] (in vivo), the “Cotton aphid % control 2 days” value was 21 (84) % and the “Cotton aphid count 2 days” value is recorded as 21 (84). Also, in the assay with cotton aphid [3], the “Cotton aphid count 2 days” value is on record as 293 and the “Cotton aphid % control 2 days” value came to 77%. For the same compound, the “cotton aphid control, tank-mixed with the adjuvant versus applied alone” value in the assay with cotton aphid [3] (rates below the recommended maximum rate for aphid control) is recorded as “much higher when tank-mixed with the adjuvant than when applied alone”.
Consider `COP(=O)(OC)O/C(C)=C/C(=O)N(C)C` [Dicrotophos], for which, in the assay on Thrips (in vivo), the “# Thrips/10 Plants, 0 DAT” value is given as 228 ± 108; the “# Thrips/10 Plants, 1 DAT” value was 31 ± 12; the “# Thrips/10 Plants, 5 DAT” value was found to be 36 ± 28; the “# Thrips/10 Plants, 9 DAT” value stood at 35 ± 16. For the same compound, in the assay with Thrips (in vivo), the “Thrips % control, 1 DAT” value is reported as “(73) %”; the “Thrips % control, 5 DAT” value was “(45) %”; the “Thrips % control, 9 DAT” value was “(03) %”.

For the origin of these results see US6566349B1 (priority 2000, dated 2003).
